Data published in US20250263416A1, “SPPL2a INHIBITORS” (Incyte Corporation, priority 2024, published 2025).
“Also recorded” adds a separate entry of the source.

Key:
[1] = In vivo epimerization and PK, statements covering all three preclinical models; parameters: species or system Sprague Dawley rats, beagle dogs, cynomolgus monkeys; conditions: for retention of deuterium in the process of epimerization: all species studied; for in vivo epimerization at the chiral carbon in the 7-membered ring: rat, monkey and dog models, PO; for exposures and PK (other than epimerization) across species: rats, monkeys, dogs
Method: These factors may lead to accumulation and potenial toxicity. The effect on epimerization by substitution at the chiral carbon was tested by comparing Example A, Example 1, and Example 29 in the following preclinical in vivo pharmacokinetic models: Sprague Dawley rats, beagle dogs, and cynomolgus monkeys.
Two groups of male Sprague Dawley rats (n=3 each) received either a single 10 mg/kg PO dose of Example A or Example 1 in a vehicle consisting of 0.5% methylcellulose in water. Blood samples were collected at 0.25, 0.5, 1, 2, 4, and 6 hours postdose.
Male Sprague Dawley rats (n=3 each) received a single 3 mg/kg PO dose of Example 29 in a vehicle consisting of 5% dimethylacetamide (DMAC) in 50 mM citrate buffer w/0.5% methylcellulose. Blood samples were collected at predose, 0.25, 0.5, 1, 2, 4, 6, 8, 12, and 24 hours postdose.
(§1) Three groups of male cynomolgus monkeys (n=2 each) received either a single 3 mg/kg PO dose of Example A, Example 1, or Example 29 in a vehicle consisting of 5% dimethylacetamide (DMAC) in 50 mM citrate buffer w/0.5% methylcellulose. Blood samples were collected at predose, 0.25, 0.5, 1, 2, 3, 4, 6, 8, 12, and 24 hours postdose.
as §1, with “beagle dogs” for “cynomolgus monkeys”, “12, 24” for “12,”, “48” for “24”
All blood samples were collected using EDTA as the anticoagulant and centrifuged to obtain plasma. Plasma concentrations of Example A, Example 1, and their respective diastereomers were determined under non-GLP conditions using standard reverse phase LC-MS/MS bioanalytical methods. The individual plasma concentration-time data was used to determine the area under the curve (AUC) values using GraphPad Prism (v9.3.1).

human SPPL2a [2] = biological target: T1, human SPPL2a (Homo sapiens, UniProt Q8TCT8); experiment: Nuclear translocation imaging assay for human SPPL2a (SPPL2a reporter U2OS cell line); assay type: cell-based; conditions: U2OS reporter cells, 24 h incubation
T1 construct: expressed in transfected cells; host or cells: U2OS (SPPL2a reporter cell line)
T1 sequence (Q8TCT8 26-520): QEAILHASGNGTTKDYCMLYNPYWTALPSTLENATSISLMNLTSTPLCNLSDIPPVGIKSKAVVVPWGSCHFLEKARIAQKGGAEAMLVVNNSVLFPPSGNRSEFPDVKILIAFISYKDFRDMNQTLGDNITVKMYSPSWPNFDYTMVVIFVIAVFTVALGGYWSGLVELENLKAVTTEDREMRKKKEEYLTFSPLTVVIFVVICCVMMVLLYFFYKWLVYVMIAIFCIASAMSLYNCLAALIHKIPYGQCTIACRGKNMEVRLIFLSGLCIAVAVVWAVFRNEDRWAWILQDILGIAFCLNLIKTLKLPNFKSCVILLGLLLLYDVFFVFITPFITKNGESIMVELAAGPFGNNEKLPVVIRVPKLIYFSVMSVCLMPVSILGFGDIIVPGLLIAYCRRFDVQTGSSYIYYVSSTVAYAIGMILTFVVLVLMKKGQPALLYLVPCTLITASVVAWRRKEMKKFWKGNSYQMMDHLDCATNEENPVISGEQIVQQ
Method: The nuclear translocation imaging assays for human SPPL2a were performed using an SPPL2a reporter U2OS cell line as previously described (Velcicky et al 2018, Zhang et al 2017). These cells stably express human SPPL2a and a doxycycline inducible eGFP TNFα (aa 1-76) NTF fusion protein (SPPL2a substrate). Both Example 1 and Example A were added at indicated concentrations and cells were incubated for 24 h, washed, and fixed. Nuclei were stained with DAPI. Images were acquired on a confocal fluorescence microscope system LSM-800 (Carl Zeiss). Image data was analyzed by using mid-section from Z-stack images of at least 10 individual cells per sample. All data is presented as mean+SEM. Statistical significance was calculated with the ANOVA test using GraphPad Prism™ 10.

human SPPL2a [3] = biological target: T1, human SPPL2a; experiment: Western blot assay of TNFα-GFP cleavage in U2OS cells expressing human SPPL2a; assay type: cell-based; conditions: SPPL2a-U2OS reporter cells, 24 h
Method: To confirm the cleavage of TNF-α in the U2OS cells that express human SPPL2a, a western blot assay was performed. The same cell line used for the imaging assays were used; these cells express human SPPL2a constitutively and an eGFP-labelled TNFα (aa 1-76) NTF substrate under a doxycycline promotor. In the presence of SPPL2a activity, TNFα-GFP is cleaved at the NTF, resulting in a single 54-56 kDa band (lower MW). If SPPL2a activity is inhibited, TNFα GFP processing is abrogated resulting in a higher molecular weight band (60-62 kDa; complete inhibition) and or both 54-56 kDa and 60-62 kDa bands (incomplete inhibition, smeared appearance) on the blot. Both Example 1 and Example A were added at indicated concentrations, and cells were incubated for 24 h with the inhibitors. Total cell lysated were prepared in ice cold-1X RIPA buffer containing protease inhibitor cocktail (AKR-190, Cell BioLabs). Lysates were collected and quantified for the total protein on NanoDrop using BCA kit (23227, Thermo Scientific). […] To detect cleaved and un-cleaved TNFα-GFP fragments, anti-GFP antibody (AF4240, R&D Biosystems) was used as a primary antibody and detected using anti-goat detection module (DM-006, ProteinSimple) according to the manufacturer's protocol. Data was analyzed using ProteinSimple compass software.

[4] = test system: Imiquimod (IMQ)-induced psoriasis mouse model; experiment: Imiquimod (IMQ)-induced psoriasis mouse model; assay type: in vivo, BALB/c female mice; conditions: 15 mg/kg PO BID
Method: A comparative study was performed to evaluate the efficacy of the deuterated-inhibitor Example 1 to Example A in the mouse model of psoriasis. Briefly, BALB/c female mice (7-8 week age) were shaved on the dorsal skin and 62.5 mg of IMQ cream was applied daily until day 9. Simultaneously, 15 mg of IMQ cream was applied on one ear daily until day 9. Example 1 and Example A were given orally (PO) at 15 mg/kg, BID. Mice were monitored and clinical signs of psoriasis were recorded (PSI score), both on the dorsal skin (erythema, scaling & thickness) and on the IMQ-applied ear (thickness). All data is presented as mean+SEM. For comparison of more than two groups, ANOVA was used. Pearson product moment correlation was used to test for correlations. All statistical analysis was performed using GraphPad Prism™ 10.

[5] = test system: Collagen-Induced Arthritis (CIA) mouse model; experiment: Collagen-induced arthritis (CIA) mouse model; assay type: in vivo, DBA-1 mice; conditions: 50 mg/kg dose, compared to the vehicle
Description: Female DBA-1 mice (8-9 weeks old) were used in the CIA mouse model. This model is widely used to evaluate efficacy of immunomodulatory drugs on autoimmune diseases, such as arthritis. DBA/1 mice develop collagen-induced arthritis (CIA) after immunization with bovine type II collagen emulsified in complete Freund's adjuvant (CFA), followed by a booster dose 21 days later. Both the immunizations were given subcutaneously, approximately 25 mm from the base of the tail on opposite sides. Immunizations were performed under a short duration isoflurane anesthesia. Mice were evaluated for the disease progression up to 45 days. […] Statistical significance was determined using Two-way ANOVA with multiple comparison tests to compare all groups to the vehicle.

retention of deuterium in the process of epimerization [1]	exposures and PK (other than epimerization) across species [1]	SMILES	in vivo epimerization at the chiral carbon in the 7-membered ring [1]	inhibition of nuclear translocation of TNFα-GFP (human SPPL2a [2])	TNFα-GFP cleavage inhibition (SPPL2a activity inhibition) (human SPPL2a [3])	dorsal PSI scores [4]	ear thickness measurements [4]	clinical signs of psoriasis disease ([4]; compared to vehicle group)	Mouse IL-12 level in plasma ([4]; terminal day)	Mouse TNFα level in plasma ([4]; terminal day)	clinical signs of CIA [5]
retained	consistent	[2H][C@@]1(NC(=O)[C@H](C)CNC(=O)c2sc(C(=O)NC)nc2C)C(=O)N2CCCN2Cc2ccccc21 [Example 1, N^2,4-Dimethyl-N^5—((R)-2-methyl-3-oxo-3-(((S)-11-oxo-2,3,10,11-tetrahydro-1H,5H-benzo[d]pyrazolo[1,2-a][1,2]diazepin-10-yl-10-d)amino)propyl)thiazole-2,5-dicarboxamide]	reduction of in vivo epimerization; also recorded: observed in all three models	inhibited; also recorded: comparable and significant TNFα-GFP inhibition of nuclear translocation	SPPL2a activity inhibition; also recorded: Comparable and significant TNFα-GFP cleavage inhibition	alleviate	alleviate	significantly reduced	significant reduction	significant reduction	significantly reduced
retained	consistent	[2H]C([2H])([2H])NC(=O)c1nc(C)c(C(=O)NC[C@@H](C)C(=O)N[C@]2([2H])C(=O)N3CCCN3Cc3ccccc32)s1 [Example 29, 4-Methyl-N2-(methyl-d3)—N^5—((R)-2-methyl-3-oxo-3-(((S)-11-oxo-2,3,10,11-tetrahydro-1H,5H-benzo[d]pyrazolo[1,2-a][1,2]diazepin-10-yl-10-d)amino)propyl)thiazole-2,5-dicarboxamide]	observed in all three models	–	–	–	–	–	–	–	–
